Measurements taken from patent US20230117205A1, “B7-H4 ANTIBODY-DRUG CONJUGATES FOR THE TREATMENT OF CANCER” (SEAGEN INC., priority 2021, published 2023).

Legend:
[1] = tested on: SKBR3, MX-1, and 293T-B7-H4; experiment: NK cell-mediated ADCC; assay type: cell-based, human; conditions: NK effector cells, 4 hours
Excerpt: Antibodies directed to cell surface antigens can elicit direct killing of antibody-coated cells, including induction of ADCC.
Human PBMCs were thawed into pre-warmed R10+ Media (RPMI 1640 (Gibco #11875-093) with 10% HI-FBS (Gibco #16140-071), 1× sodium pyruvate (Gibco #11360-070), and 1× GlutaMax (Gibco #35050-061)) and then an EasySep NK isolation kit (StemCell #17955) was used to purify NK cells. Target tumor cells were lifted off using TrypLE Express (Gibco #12604-021) and then plated into a U-bottom plate (Falcon #353077) at 40,000 cells/well (50 μL/well) for MX-1 and 293T-B7-H4 (HEK 293T cells engineered to express human B7-H4) and 20,000 cells/well (50 μL/well) for SKBR3 cell line. […] (NOTE: actual starting concentration was 6000 ng/mL to account for the inherent 3× dilution of the assay.) Then 200,000 cells/well (50 μL/well) of isolated NK cells were plated into the U-bottom plate (effector: tumor ratios were as follows: NK:SKBR3 cells 10:1; NK:MX1 cells 5:1, NK:293T-B7-H4 cells 5:1). Appropriate controls included: positive control mAb and ADC and negative non-binding control mAb and ADC, NK cells only control, target cells only control, target cells maximum lysis control, and media only control. […] A CytoTox 96 Non-Radioactive Cytotoxicity Assay kit (Promega #G1780) was used to develop the signal, which was read using 490 nm wavelength on a SpectraMax 190 instrument.

[2] = tested on: WIL2S and RAJI cells transduced to express human B7-H4; experiment: CDC, Sytox Green, 10% human serum; assay type: cell-based
Protocol: Antibodies have the ability to recruit complement proteins triggering complement-dependent cytotoxicity (CDC).
Using complement media (RPMI containing 10% human serum (Complement Technology, Inc. #NHS)), test antibodies and controls were titrated with a 3-fold dilution ranging from 50-0.02 μg/mL and 100 μL/well of the titrations were plated over the target cells. To measure total cell death, 2% Triton X (EMD Millipore Corp. #648463-50ML) was used as a positive control. Test plate was incubated for 2 hours at 37° C. in a humidity-controlled incubator and then Sytox Green fluorescence was read on an Envision plate reader.

[3] = tested on: MDA-MB-468 xenograft model; experiment: MDA-MB-468 xenograft dose range, Study MDAMB468-9; assay type: in vivo, NSG mice; conditions: three weekly doses
Protocol: Tumor volume was measured twice weekly until study day 85.
Female NSG mice were implanted with 1×10^6MDA-MB-468 cells in 25% Matrigel H C (Corning #354248) subcutaneously. Once tumor volumes reached 100 mm^3, mice were randomized into treatment groups of 5 mice each and dosed with 0.3, 1, or 3 mg/kg every seven days for three total doses (q7dx3). Twenty-four hours prior to receiving each ADC dose, each animal was treated with 10 mg/kg hIVIG (Grifolds). Tumor volumes were measured twice per week, animals were euthanized when tumor volume reached 700-1000 mm^3. Stock concentrations of ADC were diluted to desired concentration (with 0.01% Tween20 in PBS) and injected i.p. into each treatment group.

OVCAR3 xenograft model = experiment: OVCAR3 xenograft, Study OVCAR3-e314; assay type: in vivo, SCID mice; conditions: 3 mg/kg, three weekly doses, i.v.
Protocol: Tumor volume was measured twice weekly until study day 60.
Female SCID mice were implanted with OVCAR3 tumor fragments (˜1 mm^3) subcutaneously at Charles River Discovery Services (NC). Once tumor volumes reached 150-200 mm^3, mice were dosed with 3 mg/kg of ADC every seven days for three total doses (q7dx3). Tumor volumes were measured twice weekly, and animals were euthanized when tumor volume reached 1000 mm^3. Stock concentrations of ADC were diluted to a desired concentration (with PBS) and injected i.v. into each treatment group.
Tumor growth inhibition (TGI) for each treatment group compared to the untreated group was analyzed on study day 26 as follows: % TGI=[1−(([…])/MTVuntreated)]*100, where MTV is the mean tumor volume. Statistical significance was determined using the Mann-Whitney U test (two-tailed).

TNBC PDX models = experiment: TNBC patient-derived xenograft models; assay type: in vivo, mice; conditions: 3 mg/kg q7dx3; for % TGI: vs untreated
Protocol: Tumor size and body weight were measured twice weekly, and the study was terminated when tumors in the control group reached 1500 mm^3 or up to Day 28, whichever occurred first, or maximum up to Day 60.
Specifically, stock mice were bilaterally implanted with fragments from one of the Champions TumorGraft® models representing human triple negative breast cancer. After the tumors reached 1000-1500 mm^3, they were harvested, and the tumor fragments were implanted subcutaneously (s.c.) in the left flank of the female study mice. Each animal was implanted with a specific passage lot and documented. Tumor growth was monitored twice a week using digital calipers, and the tumor volume (TV) was calculated using the formula (0.52×[length×width^2]). When the TV reached approximately 150-300 mm^3, animals were matched by tumor size and assigned into control (untreated) or treatment groups (n=1-3 animals/group). Each animal in the treatment groups was dosed with 10 mg/kg hIVIG (Grifolds), followed by 3 mg/kg of ADC every seven days for three total doses (q7dx3). Tumor size and body weight were measured twice weekly, and the study was terminated when tumors in the control group reached 1500 mm^3 or up to Day 28, whichever occurred first, or maximum up to Day 60.
Inhibition of tumor growth was determined by calculating the percent TGI on the day at which animals in the control group were terminated (100%×[1−(final MTV−initial MTV of a treated group)/(final MTV−initial MTV of the control group)]). Treatment started on Day 0.

SGN-B7H4V: ADC of fully human IgG1 anti-B7-H4 mAb conjugated to monomethyl auristatin E (MMAE) via a protease-cleavable valine-citrulline linker (vedotin)
ADCC response [1]: comparable ADCC responses | lysis (CDC) [2]: did not induce lysis | anti-tumor activity (tumor volume) ([3]; 0.3 mg/kg): minimal anti-tumor activity | anti-tumor activity (tumor volume) ([3]; 1 mg/kg): transient regression of tumor volumes in all mice | anti-tumor activity (tumor volume) ([3]; 3 mg/kg): transient regression of tumor volumes in all mice | mean tumor volume compared to the untreated group (OVCAR3 xenograft model): reduction in mean tumor volume | Tumor growth inhibition (TGI) (OVCAR3 xenograft model; study day 26, compared to untreated): 48% | PDX models with tumor regression or tumor growth delay (e.g. TGI>50%) (TNBC PDX models; TNBC): 9/11 | % TGI (TNBC PDX models; TNBC_1, Day 13): 111% | % TGI (TNBC PDX models; TNBC_2, Day 7): 86% | % TGI (TNBC PDX models; TNBC_3, Day 20): 71% | % TGI (TNBC PDX models; TNBC_4, Day 20): 55% | % TGI (TNBC PDX models; TNBC_5, Day 9): 106% | % TGI (TNBC PDX models; TNBC_6, Day 20): 62% | % TGI (TNBC PDX models; TNBC_7, Day 20): 25% | % TGI (TNBC PDX models; TNBC_8, Day 17): 67% | % TGI (TNBC PDX models; TNBC_9, Day 22): 26% | % TGI (TNBC PDX models; TNBC_10, Day 27): 100% | % TGI (TNBC PDX models; TNBC_11, Day 52): 109%
